The values that follow come from PubChem BioAssay (NCI).

Common to all, as to assay: NCI anticancer screen, dose series, 48 h
Assay [1] has as its system CCRF-CEM leukemia.
Assay [2] concerns NCI-H226 lung.
Assay [3] has as its system NCI-H23 lung.
The test system of assay [4] is SNB-75 CNS.
Assay [5] concerns SNB-19 CNS.
For assay [6], the system named is A498 renal.
Assay [7] has as its system SF-539 CNS.
For assay [8], the system named is OVCAR-8 ovarian.
Assay [9] concerns TK-10 renal.
Assay [10] deals with SN12C renal.

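Test compounds were applied to cells in 96-well plates for 48 hours at 5 doses. Abbreviation: GI50, concentration required for 50% inhibition of growth. TGI: total growth inhibition.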

Regarding `COc1ccc2c(c1)O/C(=C\c1cccc(OCC(=O)Nc3nc(C)c(C)s3)c1)C2=O`, the GI50 in assay [1] was 312 nM; in assay [2] it was > 53 µM; in assay [3], 1.19 µM; in assay [4], 0.862 µM; in assay [5] it was 27.5 µM; in assay [6] it was 7.82 µM. The GI50 is 1.59 µM in [7], 4.7 µM in assay [8], 5.41 µM in assay [9] and 2 µM in assay [10]. Besides, the TGI in assay [1] is 3.07 µM; in [2], > 100 µM; in assay [4], 6.51 µM; in [5] it was > 100 µM; in assay [6] it was > 68.4 µM; in assay [7] it was 2.98 µM. Further, the TGI in assay [8], in assay [9] and in [10] was > 100 µM each time.
In the case of `Cc1cccc(Nc2cc(Cl)nc(SCC(=O)O)n2)c1C`, the TGI in assay [1], in [2], in assay [3], in assay [4], in assay [5] and in assay [6] was > 100 µM each time. For the same compound, the TGI in [7], in [8], in assay [9] and in assay [10] was > 100 µM in each case.
As for `COc1cccc(NC(=O)c2sc3nc4c(cc3c2N)C(O)CCC4)c1` (stereo not drawn), the GI50 is 220 nM in assay [1]; 0.669 µM in assay [2]; 0.442 µM in assay [3]; 0.17 µM in assay [4]; 2.12 µM in assay [5]; 0.112 µM in assay [6]. The GI50 is 0.14 µM in assay [7], 0.377 µM in assay [8], 46.8 µM in assay [9] and 0.562 µM in assay [10]. Also, the TGI in assay [1] was > 100 µM; in [2] it was > 100 µM; in assay [3] it was > 100 µM; in [4] it was 24.7 µM; in [5], > 93.2 µM; in [6] it was 4 µM. The TGI is 0.606 µM in [7], > 100 µM in assay [8], > 100 µM in [9] and > 100 µM in assay [10].
Turning to `CCC(=O)C(C(=O)CC)c1c(OC(=O)c2ccccc2)ccc(O)c1C(=O)OC`, the TGI in [1], in assay [2], in assay [3], in assay [4], in assay [5] and in assay [6] was > 100 µM throughout. Moreover, the TGI in assay [7], in assay [8], in [9] and in assay [10] was > 100 µM throughout.
As to `OC(COc1ccccc1)CN1CCCCC1` (stereo not drawn), the TGI in assay [1], in assay [2], in [3], in assay [4], in [5] and in assay [6] was > 100 µM each time. Also, the TGI in assay [7], in assay [8], in [9] and in assay [10] was > 100 µM in each case.
As for `O=C1C=C(Nc2ccc(S(=O)(=O)Nc3ncccn3)cc2)c2ccccc2C1=O`, the TGI in [1] is > 100 µM; in [2], 56.8 µM; in assay [3], 34.1 µM; in [4] it was 59.4 µM; in assay [5] it was 90.2 µM; in assay [6], 69.4 µM. In addition, the TGI is 58.4 µM in assay [7], 42.4 µM in [8], > 100 µM in assay [9] and 35.9 µM in assay [10].
As to `O=C(Nc1ccc2c(c1)OCCO2)C(=O)c1c[nH]c2ccccc12`, the GI50 in assay [1] was 1080 nM; in assay [2], 5.03 µM; in assay [3], 1.44 µM; in assay [4], 1.33 µM; in assay [5] it was 2.88 µM; in assay [6], 0.535 µM. The GI50 in [7] was 1.5 µM; in assay [8], 2.37 µM; in assay [9], 6.75 µM; in assay [10], 2.31 µM. For the same compound, the TGI in assay [1] was > 100 µM; in assay [2] it was 61.3 µM; in [3], 26.7 µM; in assay [4], 5.96 µM; in assay [5], 79.7 µM; in assay [6], 7.08 µM. The TGI in assay [7] was 5.32 µM; in [8] it was 35.7 µM; in assay [9], 31.4 µM; in assay [10], > 83 µM.
For `C/C(CC(=O)Nc1ccc(NC(=O)C/C(C)=N\NC(N)=O)cc1)=N/NC(N)=O`, the TGI in assay [1], in assay [2], in assay [3], in [4], in assay [5] and in [6] was > 100 µM throughout. In addition, the TGI in assay [7], in assay [8], in assay [9] and in assay [10] was > 100 µM each time.
`CCN(CC)c1ccc(N=Nc2ccc(-c3nc4cccn(C)c-4n3)cc2)cc1`: the TGI in [1] is 19.8 µM; in [2], 43.8 µM; in assay [3] it was 34.7 µM; in assay [4] it was 38.9 µM; in assay [5], 52.4 µM; in [6], 28.3 µM. Besides, the TGI in assay [7] turned out to be 25.8 µM; in [8], 24 µM; in [9] it was 68.2 µM; in assay [10] it was 19.3 µM.
As for `COc1ccc(-c2nn3ncccc3c2-c2ccnc(Nc3ccc4c(c3)OCCO4)n2)cc1`, the GI50 in assay [1] is 6070 nM; in assay [2] it was 5.51 µM; in [3], 9.22 µM; in [4], > 13.9 µM; in assay [5], 16.3 µM; in assay [6] it was 3.69 µM. Besides, the GI50 is 13 µM in [7], 7.3 µM in assay [8], 4.54 µM in assay [9] and 6.5 µM in [10]. The TGI in [1] is > 25 µM; in assay [2], > 25 µM; in [3] it was > 25 µM; in assay [4], > 25 µM; in assay [5] it was > 25 µM; in assay [6], 22.1 µM. In addition, the TGI in [7] was > 25 µM; in assay [8] it was > 25 µM; in assay [9], 18.5 µM; in assay [10] it was > 25 µM.
As to `c1ccc(C2CC(c3ccc4ccccc4c3)=Nc3ccccc3S2)cc1` (stereo not drawn), the TGI in assay [1] worked out at 99.7 µM; in assay [2], 42.7 µM; in assay [3], 28.9 µM; in assay [4] it was 40.4 µM; in assay [5], 36.7 µM; in assay [6], 31.1 µM. Further, the TGI was 31.5 µM in assay [7], 29.9 µM in assay [8], 37.8 µM in assay [9] and 30.4 µM in assay [10].
In the case of `CCc1nn2ncccc2c1-c1ccnc(NC2CC2)n1`, the GI50 in assay [1] was > 25000 nM; in [2], 20.2 µM; in [3], > 25 µM; in assay [4], > 25 µM; in assay [5], > 25 µM; in assay [6], 9.73 µM. Besides, the GI50 in assay [7], in assay [8], in [9] and in [10] was > 25 µM in each case. The TGI in assay [1], in assay [2], in [3], in assay [4], in assay [5] and in assay [6] was > 25 µM throughout. For the same compound, the TGI in assay [7], in assay [8], in assay [9] and in [10] was > 25 µM throughout.
`O=C(Oc1ccccc1)C(Br)C(Br)c1ccccc1` (stereo not drawn): the GI50 was 1390 nM in assay [1]; 5 µM in [2]; 7.2 µM in [3]; 15.7 µM in [4]; 11.9 µM in assay [5]; 10.5 µM in assay [6]. The GI50 in assay [7] was 4.76 µM; in assay [8], 6.11 µM; in assay [9] it was 2.19 µM; in assay [10], 1.88 µM. In addition, the TGI was 6.68 µM in [1]; 18.7 µM in assay [2]; 24.3 µM in assay [3]; 30.1 µM in assay [4]; 24.6 µM in assay [5]; 22.4 µM in [6]. Besides, the TGI amounted to 16.4 µM in assay [7], 21.8 µM in assay [8], 4.95 µM in assay [9] and 4.5 µM in [10].
Turning to `C=C(CN1c2ccccc2Sc2ccccc21)c1ccc(C(=O)Nc2ccccc2N)cc1`, the GI50 was 101 nM in [1]; 8.53 µM in assay [2]; > 100 µM in [3]; 15.8 µM in assay [4]; > 54.3 µM in assay [5]; > 100 µM in [6]. Also, the GI50 in assay [7] was > 26 µM; in [8], > 80.4 µM; in [9], 23.9 µM; in [10] it was 8.07 µM. The TGI in assay [2], in assay [3], in assay [4], in assay [5], in [6] and in [7] was > 100 µM throughout. Moreover, the TGI in assay [8], in [9] and in [10] was > 100 µM in each case.
As for `CC1=C(C(=O)Nc2ccccc2)C(c2cc(Cl)cc(Cl)c2)C(C(=O)Nc2ccccc2)=C(C)N1`, the TGI is 14.9 µM in assay [1]; 31.6 µM in assay [2]; 19.1 µM in assay [3]; 34 µM in assay [4]; 27.5 µM in assay [5]; 43.1 µM in [6]. Also, the TGI in [7] worked out at 32.8 µM; in assay [8] it was 43.5 µM; in assay [9], 33.6 µM; in assay [10], 25.3 µM.
`O=C(N/C(=C/c1cccc([N+](=O)[O-])c1)c1nc2ccc(Cl)cc2[nH]1)c1ccccc1`: the TGI in assay [1] was 48 µM; in assay [2] it was > 100 µM; in assay [3], 99.5 µM; in assay [4], 68.3 µM; in assay [5] it was > 100 µM; in assay [6], 66.2 µM. In addition, the TGI in assay [7] was found to be 12.5 µM; in assay [8], 30.6 µM; in assay [9] it was 62.1 µM; in assay [10], 87.4 µM.
Regarding `COc1ccc(-c2nsc3c2NC(=O)CC3c2cccc(Cl)c2)cc1` (stereo not drawn), the GI50 in [1] was 2440 nM; in assay [2], 10.8 µM; in assay [3] it was 4.62 µM; in assay [4] it was 1.53 µM; in assay [5], 5.44 µM; in assay [6] it was 1.34 µM. The GI50 in assay [7] was 1.75 µM; in [8], 4.35 µM; in assay [9], 3.48 µM; in assay [10], > 22.8 µM. In addition, the TGI in assay [1] was > 100 µM; in [2], > 100 µM; in assay [3], > 100 µM; in assay [4], 7.46 µM; in [5] it was > 100 µM; in assay [6], 8.1 µM. For the same compound, the TGI in [7] was 6.06 µM; in [8] it was > 100 µM; in assay [9], > 100 µM; in assay [10], > 100 µM.
Turning to `CC1=C(C#N)C(/C=C(\Cl)c2ccc(F)cc2)C(C#N)=C(C)N1`, the GI50 in [1] is > 100000 nM; in assay [2] it was > 100 µM; in [3], > 100 µM; in assay [4] it was 86.3 µM; in [5], > 100 µM; in assay [6], > 100 µM. The GI50 in [7], in assay [8], in assay [9] and in assay [10] was > 100 µM each time. For the same compound, the TGI in assay [1], in [2], in [3], in assay [4], in assay [5] and in [6] was > 100 µM in each case. Moreover, the TGI in assay [7], in [8], in [9] and in [10] was > 100 µM each time.
Regarding `Nc1nc2c(ccc3ccccc32)s1`, the GI50 in assay [1] was 48100 nM; in assay [2], > 100 µM; in [3] it was > 100 µM; in [4] it was 36.8 µM; in assay [5], > 100 µM; in [6], 74.1 µM. Also, the GI50 in assay [7] was > 100 µM; in assay [8], > 100 µM; in assay [9], 35.2 µM; in assay [10] it was > 100 µM. For the same compound, the TGI in [1], in assay [2], in [3], in assay [4], in [5] and in assay [6] was > 100 µM each time. The TGI in [7], in assay [8], in assay [9] and in assay [10] was > 100 µM throughout.
